Data published in BindingDB's records for doi:10.1021/cb800120t (deCODE Chemistry Inc, 2008).

target: T1, m7GpppX diphosphatase (Homo sapiens, UniProt Q96C86); experiment: Biochemical Assay
T1 sequence (Q96C86 whole entry): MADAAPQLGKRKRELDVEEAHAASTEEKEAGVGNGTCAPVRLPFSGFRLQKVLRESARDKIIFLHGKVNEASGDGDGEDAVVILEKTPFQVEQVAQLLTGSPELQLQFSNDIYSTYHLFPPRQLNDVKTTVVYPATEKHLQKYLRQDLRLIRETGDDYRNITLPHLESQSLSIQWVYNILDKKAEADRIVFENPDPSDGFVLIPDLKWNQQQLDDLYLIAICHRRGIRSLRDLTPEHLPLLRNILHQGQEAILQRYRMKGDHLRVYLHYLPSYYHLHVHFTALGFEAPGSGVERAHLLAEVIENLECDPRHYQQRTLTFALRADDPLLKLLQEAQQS
Description: In vitro biochemical assay using scavenger decapping enzyme (DcpS) as a target and cell based assay using SMN2 b-lactamase NSC-34 cell reporter gene.

SMILES | EC50 | IC50
Nc1nc(N)c2c(COc3ccccc3I)cccc2n1 [D153215] | 243 nM | 
Nc1nc(N)c2c(OCC3CCN(CC4CCNCC4)CC3)cccc2n1 [D157554] | 921 nM | 
Cn1ccnc1CN1CCC(COc2cccc3nc(N)nc(N)c23)CC1 [D157555] | 108 nM | 9.38 nM

The remaining compounds from weak to strong by EC50, led by results:

EC50 | IC50 | SMILES
2540 nM | 339 nM | CC(=O)Nc1nc(CN2CCC(COc3cccc4nc(N)nc(N)c34)CC2)cs1 [D156676]
795 nM | 101 nM | Nc1nc(N)c2c(OCC3CCN(c4ccccc4Cl)CC3)cccc2n1 [D158885]
223 nM | 23.4 nM | Nc1nc(N)c2c(OCC3CCN(CC(F)(F)F)CC3)cccc2n1 [D158963]
